One series concerns the target T1, NPEPPS (Homo sapiens, UniProt P55786).
T1 construct: endogenous in cells; host or cells: HEK293T
Nature of the series: Cell-based NPEPPS activity assay (Q-AMC fluorescence). Conditions: log10 transformed; EC50 = concentration that elevates 50% NPEPPS activity (150% of DMSO baseline); HEK293T cells. Here is the method:
HEK293T cells (AATC) were maintained in a complete media containing DMEM (Gibco 11995-065) in the presence of 10% fetal bovine serum (FBS, Gibco 10082147), […] penicillin and 50 μg/ml streptomycin (Gibco 15140163) at 37° C. with 5% CO2. NPEPPS activity assay was conducted in a fresh-prepared minimal medium containing essential amino acids, vitamin, AlbuMax (Invitrogen 11021-029) in 1×HBS buffer. Black wall, clear bottom 384-well assay plates (Greiner EK-30092) were coated with poly-L-ornithine (0.1 mg/ml, Sigma P3655) overnight and washed once with 1×PBS. 15 μl minimal medium was then added to each well. 250 nL of compounds dissolved in OmniSolve methylsulfoxide (dimethyl sulfoxide, DMSO, Sigma MX1456P) were pinned to each well via Biomek FX^P Liquid Handling Automation (Beckman Coulter) from compound source plates, i.e., either pre-made compound libraries or JMM compounds (20-step, 2-fold dilution) dissolved in OmniSolve DMSO prepared via Biomek automation in 384-well clear V-bottom polypropylene microplates (ThermoScientific 50-823-639). Cells were harvested, resuspended in minimal medium, and seeded at 16,500 cells/15 μl/well in the 384-well assay plates. 24 hrs later, 30 μl 200 μM H-Gln-AMC hydrobromide salt (Q-AMC, Bachem #I-1175) in 1×HBS containing 0.1% DMSO was added into each well. The fluorescent signal at excitation/emission wavelengths of 360/460 nm was measured immediately upon Q-AMC addition and 3 hrs post-Q-AMC. The change in fluorescence is measured as a readout of NPEPPS activity.
To identify small molecules that either increase NPEPPS levels or NPEPPS activity, a cell-based NPEPPS activity assay amenable to high-throughput screening (HTS) by adapting a fluorescent peptidase activity assay^2 was developed. Since NPEPPS is one of the only aminopeptidases capable of cleaving glutamine-peptide bonds^3 and the major aminopeptidase responsible for degradation of poly-glutamine sequences in the brain^4, a fluorogenic compound, glutamine-7-amino-4-methylcoumarin (Q-AMC), was selected as a substrate to measure NPEPPS activity. The peptide bond of Q-AMC is hydrolyzed by NPEPPS to release glutamine and a fluorescent product, 7-amino-4-methylcoumarin (AMC), when Q-AMC is added directly to the cell culture media. This change in fluorescence is measured as a readout of aminopeptidase activity (FIG. 2A). Overexpression of NPEPPS in HEK293T cells results in a significant increase in fluorescence, whereas knock-down or chemical inhibition of NPEPPS decrease fluorescence change (FIG. 2B-D), validating that the changes in fluorescence observed in the Q-AMC-based assay directly correlate with changes in NPEPPS activity. A high-throughput (HTS) screen (201,845 compounds) was conducted at the UCLA MSSR core (FIG. 2E). Follow-up assays and chemical clustering identified three series of compounds with distinct chemical clusters (FIG. 2F).
(§1) To investigate the effects of JMM compounds that enhance NPEPPS activity and assess their cellular toxicity, 139 compounds in the JMM series (i.e., JMM001-JMM139) were tested in dose responses (20-step, 2-fold dilution) using NPEPPS activity and viability assays in HEK293T cells. 76 compounds harboring different modifications produce concentration-dependent enhancement on NPEPPS activity compared to DMSO control (FIG. 4). […] A therapeutic index (TI, a ratio of IC50 over EC50) is used to evaluate the relative safety profiles of the compounds. […] 16 JMM compounds show both improved potency and reduced toxicity (EC50<10 μM and TI>10, Table 1).

In another series the test system is HEK293T cells. Briefly: Cell viability assay (CellTiter Glo). Type of series: cell-based, human. Conditions: for IC50: Homo sapiens, HEK-293T, log10 transformed, IC50 = concentration that suppresses 50% cell viability, HEK293T cells; for Therapeutic index: ratio of IC50 (cell viability) over EC50 (NPEPPS activity). Here is the method:
HEK293T cells (AATC) were maintained in complete media and cell viability assay was conducted in a fresh-prepared minimal medium containing essential amino acids, vitamin, AlbuMax (Invitrogen 11021-029) in 1×HBS buffer. White 384-well assay plates (Greiner EK-30080) were coated with poly-L-ornithine (0.1 mg/ml) overnight and washed once with 1×PBS. 15 μl minimal medium was then added to each well. 250 nl of compounds dissolved in OmniSolve DMSO were pinned to each well via Biomek FX^P Liquid Handling Automation from compound source plates. Cells were harvested, resuspended in minimal medium, and seeded at 16,500 cells/15 μl/well in the 384-well assay plates. 24 hrs later, 25 μl/well CellTiter Glo reagent (Promega G7572) was added into each well, and luminescence (0.5 second integration time) was acquired following manufacture's protocol. Luminescence count normalized to DMSO control is used as a readout of cell viability.
as §1
(ATP-based viability assays read luminescence as a measure of living cells.)

T1 sequence (P55786 whole entry): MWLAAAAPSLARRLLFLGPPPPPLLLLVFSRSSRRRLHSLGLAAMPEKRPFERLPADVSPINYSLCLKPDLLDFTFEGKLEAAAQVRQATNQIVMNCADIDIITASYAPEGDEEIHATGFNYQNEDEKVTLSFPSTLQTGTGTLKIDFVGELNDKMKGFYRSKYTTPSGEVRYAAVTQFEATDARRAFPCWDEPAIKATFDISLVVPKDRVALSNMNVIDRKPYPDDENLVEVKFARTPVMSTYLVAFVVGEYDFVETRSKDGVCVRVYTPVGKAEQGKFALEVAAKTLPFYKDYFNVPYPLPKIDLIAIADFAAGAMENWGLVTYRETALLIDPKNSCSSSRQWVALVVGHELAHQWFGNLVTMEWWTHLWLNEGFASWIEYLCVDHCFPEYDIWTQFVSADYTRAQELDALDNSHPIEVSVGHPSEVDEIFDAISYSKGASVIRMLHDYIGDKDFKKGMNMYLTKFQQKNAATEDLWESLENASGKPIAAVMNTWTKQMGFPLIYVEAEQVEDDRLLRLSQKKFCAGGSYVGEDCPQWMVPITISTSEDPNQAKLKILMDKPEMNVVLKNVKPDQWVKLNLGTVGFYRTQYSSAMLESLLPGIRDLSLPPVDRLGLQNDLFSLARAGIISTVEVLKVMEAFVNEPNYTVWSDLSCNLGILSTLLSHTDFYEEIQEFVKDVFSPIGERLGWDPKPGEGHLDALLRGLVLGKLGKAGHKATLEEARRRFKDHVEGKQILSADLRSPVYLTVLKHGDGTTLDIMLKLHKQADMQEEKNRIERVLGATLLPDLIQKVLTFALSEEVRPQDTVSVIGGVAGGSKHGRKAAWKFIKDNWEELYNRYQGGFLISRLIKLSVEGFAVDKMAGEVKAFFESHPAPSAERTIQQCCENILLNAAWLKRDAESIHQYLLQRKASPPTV

For orientation: EC50 means the concentration giving half of the maximal effect. For orientation: IC50 means the concentration needed to halve the response being measured. Regarding `c1ccc(COc2ccc(CNc3nsc4cnccc34)cc2)cc1` [JMM077], it took 6.46 µM to reach a half-maximal effect on NPEPPS (EC50). Also, in the series with HEK293T cells, the IC50 was 61.7 µM and the Therapeutic index stood at 9.60.

On NPEPPS, `CN(Cc1ccc(OCc2ccccc2)cc1)c1nsc2cnccc12` [JMM078] gave an EC50 of 2.29 µM. Further, in the series with HEK293T cells, inhibition was half-maximal at 49 µM (IC50) and the Therapeutic index is listed as 21.66.

`CN(Cc1ccccc1C(F)(F)F)c1nsc2ccccc12` [JMM079]: at NPEPPS, a half-maximal response (EC50) required 3.55 µM. Besides, in the series on HEK293T cells, the midpoint of inhibition, the IC50, lay at 69.2 µM and the Therapeutic index amounted to 19.15.

`CC(Nc1nsc2ccccc12)c1cccc2ccccc12` (stereo not drawn) [JMM080] showed an EC50 on NPEPPS of 9.33 µM. Also, in the series with HEK293T cells, inhibition was half-maximal at 105 µM (IC50) and the Therapeutic index stood at 11.09.

Consider `FC(F)(F)Sc1ccc(CNc2nsc3ccccc23)cc1` [JMM081], for which, on NPEPPS, the EC50 is 6.31 µM. In the series on HEK293T cells, the IC50 was 66.1 µM and the Therapeutic index came to 10.45.

Take `CN(Cc1ccc(SC(F)(F)F)cc1)c1nsc2ccccc12` [JMM082]: the response on NPEPPS was half-maximal at 2.63 µM (EC50). In the series with HEK293T cells, 75.9 µM corresponded to half-maximal inhibition (IC50) and the Therapeutic index was 29.32.

`CN(Cc1ccc(C(F)(F)F)cc1)c1nsc2cnccc12` [JMM084] had an EC50 on NPEPPS of 4.57 µM. Further, in the series with HEK293T cells, the IC50 is 23.4 µM and the Therapeutic index came to 5.13.

With `CN(Cc1ccc(OCc2ccccc2)cc1)c1nsc2ccc(OCc3ccccc3)cc12` [JMM088], the EC50 on NPEPPS was 0.977 µM. In the series on HEK293T cells, 97.7 µM corresponded to half-maximal inhibition (IC50) and the Therapeutic index was determined as 100.53.

Compound `Clc1ccc(CNc2nsc3ccc(OCc4ccccc4)cc23)cc1Cl` [JMM090] gave an EC50 on NPEPPS of 22.4 µM. Further, in the series with HEK293T cells, it took 30.9 µM to reach half-maximal inhibition (IC50) and the Therapeutic index was determined as 1.39.

As to `CN(Cc1ccc(OCc2ccccc2)cc1)c1nsc2ccccc12` [JMM091], on NPEPPS, the EC50 was 145 µM. In the series on HEK293T cells, the IC50 was 174 µM and the Therapeutic index is listed as 1.19.

As for `CCN(Cc1ccc(C(F)(F)F)cc1)c1nsc2ccccc12` [JMM092], on NPEPPS, the EC50 was 44.7 µM. In the series on HEK293T cells, half-maximal inhibition (IC50) was put at 126 µM and the Therapeutic index was 2.84.

As for `CN(Cc1ccc(Cl)c(Cl)c1)c1nsc2ccc(OCc3ccccc3)cc12` [JMM093], at NPEPPS, the EC50 was 5.01 µM. For the same compound, in the series on HEK293T cells, the IC50 was 20.4 µM and the Therapeutic index is 4.06.

`COc1ccc2snc(NCc3ccc(OCc4ccccc4)cc3)c2c1` [JMM094] had an EC50 at NPEPPS of 37.2 µM. Moreover, in the series with HEK293T cells, inhibition was half-maximal at 178 µM (IC50) and the Therapeutic index stood at 4.80.

On NPEPPS, `COc1ccc2snc(N(C)Cc3ccc(OCc4ccccc4)cc3)c2c1` [JMM095] gave an EC50 of 7.76 µM. In the series on HEK293T cells, the IC50 is 72.4 µM and the Therapeutic index is reported as 9.25.

`FC(F)(F)Sc1ccc(CNc2nsc3ccc(OCc4ccccc4)cc23)cc1` [JMM096] had an EC50 at NPEPPS of 10.2 µM. In the series on HEK293T cells, the IC50 is 63.1 µM and the Therapeutic index was 6.09.

In turn, `COc1ccc(CNc2nsc3ccc(OC)cc23)cc1` [JMM097] had an EC50 on NPEPPS of 398 µM. Besides, in the series with HEK293T cells, inhibition was half-maximal at 229 µM (IC50) and the Therapeutic index is on record as 0.57.

On NPEPPS, `CN(Cc1ccc(SC(F)(F)F)cc1)c1nsc2ccc(OCc3ccccc3)cc12` [JMM098] showed an EC50 of 18.6 µM. In the series on HEK293T cells, half-maximal inhibition (IC50) required 107 µM and the Therapeutic index was determined as 5.68.

`COc1ccc(CNc2nsc3ccc(OCc4ccccc4)cc23)cc1` [JMM099]: a half-maximal effect on NPEPPS (EC50) was put at 46.8 µM. For the same compound, in the series on HEK293T cells, half-maximal inhibition (IC50) was put at 34.7 µM and the Therapeutic index was determined as 0.74.

Turning to `COc1ccc(CN(C)c2nsc3ccc(OC)cc23)cc1` [JMM100], the EC50 at NPEPPS was 79.4 µM. For the same compound, in the series with HEK293T cells, the IC50 was 126 µM and the Therapeutic index came out at 1.56.

`C[C@H](Nc1nsc2ccccc12)c1cccc2ccccc12` [JMM101]: at NPEPPS, a half-maximal response (EC50) required 70.8 µM. In addition, in the series with HEK293T cells, it took 407 µM to reach half-maximal inhibition (IC50) and the Therapeutic index is 5.74.

At NPEPPS, `C[C@@H](Nc1nsc2ccccc12)c1cccc2ccccc12` [JMM102] showed an EC50 of 162 µM. For the same compound, in the series on HEK293T cells, half-maximal inhibition (IC50) required 417 µM and the Therapeutic index is reported as 2.54.

Take `Clc1ccc(COc2ccc(CNc3nsc4ccc(OCc5ccccc5)cc34)cc2)cc1Cl` [JMM103]: on NPEPPS, a half-maximal response (EC50) required 1.05 µM. In the series with HEK293T cells, the IC50 was 1620 µM and the Therapeutic index is reported as 1543.93.

`COc1ccc(COc2nsc3ccccc23)cc1OC` [JMM104] showed an EC50 on NPEPPS of 105 µM. Further, in the series with HEK293T cells, the IC50 was 63.1 µM and the Therapeutic index turned out to be 0.60.

For the compound `c1ccc(COc2ccc3snc(NCc4ccc(-c5ccccc5)cc4)c3c2)cc1` [JMM105, N-([1,1′-Biphenyl]-4-ylmethyl)-5-(benzyloxy)benzo[d]isothiazol-3-amine], a half-maximal effect at NPEPPS (EC50) was put at 26.3 µM. In the series on HEK293T cells, half-maximal inhibition (IC50) was put at 53.7 µM and the Therapeutic index was 2.02.

Compound `c1ccc(COc2ccc3snc(NCc4ccc(OCc5cccc6ccccc56)cc4)c3c2)cc1` [JMM106, 5-(Benzyloxy)-N-(4-(naphthalen-1-ylmethoxy)benzyl)benzo[d]isothiazol-3-amine] gave an EC50 on NPEPPS of 126 µM. Also, in the series with HEK293T cells, the IC50 was 794 µM and the Therapeutic index amounted to 6.26.

`COc1ccc(CN(C)c2nsc3ccc(OCc4ccccc4)cc23)cc1` [JMM107, 5-(Benzyloxy)-N-(4-methoxybenzyl)-N-methylbenzo[d]isothiazol-3-amine] had a concentration giving a half-maximal response (EC50) on NPEPPS of 85.1 µM. For the same compound, in the series with HEK293T cells, inhibition was half-maximal at 87.1 µM (IC50) and the Therapeutic index was determined as 1.04.

In turn, `CN(Cc1ccc(OCc2ccc(Cl)cc2)cc1)c1nsc2ccc(OCc3ccccc3)cc12` [JMM108, 5-(Benzyloxy)-N-(4-((4-chlorobenzyl)oxy)benzyl)-N-methylbenzo[d]isothiazol-3-amine] gave an EC50 at NPEPPS of 5.62 µM. Further, in the series on HEK293T cells, the IC50 is 40.7 µM and the Therapeutic index is recorded as 7.13.

In turn, `CN(Cc1ccc(OCc2ccc(Cl)c(Cl)c2)cc1)c1nsc2ccc(OCc3ccccc3)cc12` [JMM109, 5-(Benzyloxy)-N-(4-((3,4-dichlorobenzyl)oxy)benzyl)-N-methylbenzo[d]isothiazol-3-amine] gave an EC50 on NPEPPS of 4.07 µM. Moreover, in the series with HEK293T cells, the IC50 was 60.3 µM and the Therapeutic index is on record as 14.99.

The compound `CN(Cc1cccc2ccccc12)c1nsc2ccccc12` [JMM110, N-Methyl-N-(naphthalen-1-ylmethyl)benzo[d]isothiazol-3-amine] had an EC50 on NPEPPS of 42.7 µM. For the same compound, in the series on HEK293T cells, the IC50 is 229 µM and the Therapeutic index came to 5.40.

`Fc1ccc(COc2ccc(CNc3nsc4ccc(OCc5ccccc5)cc34)cc2)c(F)c1` [JMM111, 5-(Benzyloxy)-N-(4-((2,4-difluorobenzyl)oxy)benzyl)benzo[d]isothiazol-3-amine]: the EC50 at NPEPPS is 10.2 µM. Besides, in the series with HEK293T cells, 27.5 µM corresponded to half-maximal inhibition (IC50) and the Therapeutic index is reported as 2.74.
